We go through 30 molecules from US10654816B2, “Compounds and compositions for treating conditions associated with NLRP activity” (NOVARTIS INFLAMMASOME RESEARCH, INC., priority 2017, dated 2020).

One may read the IC50 as the concentration that gives 50% inhibition.

Some results are limits rather than exact numbers.

In the first assay the test system is IL-1β production in PMA-differentiated THP-1 cells. Description: IL-1β production in PMA-differentiated THP-1 cells stimulated with gramicidin (hTHP-1 assay, HTRF readout; Procedures 1-3). The assay is classed as cell-based, human. The conditions noted are these: Homo sapiens, THP-1, hTHP-1 assay containing 2% fetal bovine serum; average; class symbols; read-out: hTHP-1 IC50 (Average IC50 of compounds in hTHP-1 assay). The procedure, abridged:
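PMA-differentiated (20 ng/ml, 16-18 h) THP-1 cells in RPMI with 2% FBS, 50,000 cells/well, preincubated 1 h with compound (final 0.0017-100 μM, 0.37% DMSO), then stimulated with 5 μM gramicidin for 2 h. IL-1β in cell-free supernatant measured by HTRF (620/668 nm).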
Consider `CCc1ccc2cnn(C)c2c1NC(=O)N=S(N)(=O)c1ncc(C(C)(C)O)s1` (stereo not drawn) [Example 255, N′-((6-ethyl-1-methyl-1H-indazol-7-yl)carbamoyl)-5-(2-hydroxypropan-2-yl)thiazole-2-sulfonimidamide], for which the IC50 lay in the range of 5 to 30 µM. On to `Cc1nc(C)c(S(N)(=O)=NC(=O)Nc2c(C(C)C)cc(F)cc2C(C)C)s1` (stereo not drawn) [Example 428, 3-[amino(dimethyl-1,3-thiazol-5-yl)oxo-λ^6-sulfanylidene]-1-[4-fluoro-2,6-bis(propan-2-yl)phenyl]urea], for which the IC50 was 5 to 30 µM. For the molecule `NS(=O)(=NC(=O)Nc1c2c(cc3c1CCC3)CCC2)c1ccc(CO)cc1` (stereo not drawn) [Example 233, 1-[amino[4-(hydroxymethyl)phenyl]oxo-λ^6-sulfanylidene]-3-(1,2,3,5,6,7-hexahydro-s-indacen-4-yl)urea], the IC50 fell in the range of 1 to 5 µM.

For `CN(C)S(=O)(=NC(=O)Nc1c2c(cc3c1CCC3)CCC2)c1cc(C(C)(C)O)cs1` (single isomer, unassigned) [Example 357, (R) or (S)-N′-((1,2,3,5,6,7-hexahydro-s-indacen-4-yl)carbamoyl)-4-(2-hydroxypropan-2-yl)-N,N-dimethylthiophene-2-sulfonimidamide], the IC50 was in the range of 5 to 30 µM. For the molecule `NS(=O)(=NC(=O)Nc1c2c(cc3c1CCC3)CCC2)c1ccc(CN2CCCC2=O)cc1` (stereo not drawn) [Example 244], the IC50 lay in the range of 5 to 30 µM. Consider `Cc1cc(C(C)(C)O)ccc1S(N)(=O)=NC(=O)Nc1c(C(C)C)cc(OC(F)F)cc1C1CC1` (single isomer, unassigned) [Example 119, (S)- or (R)-N′-(2-cyclopropyl-4-(difluoromethoxy)-6-isopropylphenylcarbamoyl)-4-(2-hydroxypropan-2-yl)-2-methylbenzenesulfonimidamide], for which the IC50 lay within 5 to 30 µM.

`CN(Cc1ccc(S(N)(=O)=NC(=O)Nc2c3c(cc4c2CCC4)CCC3)cc1)CC1CC1` (stereo not drawn) [Example 240, 4-(((Cyclopropyl-methyl)(methyl)amino)methyl)-N′-(1,2,3,5,6,7-hexahydro-s-indacen-4-ylcarbamoyl)benzenesulfonimidamide]: the half-inhibitory concentration (IC50) was in the range of 1 to 5 µM. Turning to `CC(C)c1cc(C#N)cc(C(C)C)c1NC(=O)N=S(N)(=O)c1ccc(C(C)(C)O)c(CO)c1` (stereo not drawn) [Example 68, N′-((4-cyano-2,6-diisopropylphenyl)carbaoyl)-3-(hydroxymethyl)-4-(2-hydroxypropan-2-yl)benzenesulfonimidamide], the IC50 lay in the range of 1 to 5 µM. As for `COc1cc(CN(C)C)ccc1S(N)(=O)=NC(=O)Nc1c2c(cc3c1CCC3)CCC2` (stereo not drawn) [Example 272, 4-((Dimethylamino)methyl)-N′-((1,2,3,5,6,7-hexahydro-s-indacen-4-yl)carbamoyl)-2-methoxybenzenesulfonimidamide], the IC50 was 0.2 to 1 µM. Same read-out and setting: in the case of `Cc1oc(S(N)(=O)=NC(=O)Nc2c(C(C)C)cc(C#N)c(F)c2C(C)C)cc1C(C)(C)O` (stereo not drawn) [Example 33, N′-(4-cyano-3-fluoro-2,6-diisopropylphenylcarbamoyl)-4-(2-hydroxypropan-2-yl)-5-methylfuran-2-sulfonimidamide] it was 0.04 to 0.2 µM; in that of `CC(C)c1ccc(S(N)(=O)=NC(=O)Nc2c3c(cc4c2CCC4)CCC3)cn1` (stereo not drawn) [Example 288, N′-((1,2,3,5,6,7-hexahydro-s-indacen-4-yl)carbamoyl)-6-isopropylpyridine-3-sulfonimidamide], 1 to 5 µM; in that of `C#CCCC(=O)N(C)Cc1ccc(S(N)(=O)=NC(=O)Nc2c3c(cc4c2CCC4)CCC3)cc1` (single isomer, unassigned) [Example 312, (S) or (R)-N-(4-(N′-((1,2,3,5,6,7-hexahydro-s-indacen-4-yl)carbamoyl)sulfamid-imidoyl)benzyl)-N-methylpent-4-ynamide], 1 to 5 µM.

Regarding `CN(Cc1ccc(S(N)(=O)=NC(=O)Nc2c3c(cc4c2CCC4)CCC3)cc1)CC(F)F` (stereo not drawn) [Example 241, 4-(((2,2-Difluoroethyl)(methyl)amino)methyl)-N′-(1,2,3,5,6,7-hexahydro-s-indacen-4-ylcarbamoyl)benzenesulfonimidamide], the IC50 fell in the range of 1 to 5 µM. Turning to `CCc1ccc2cn[nH]c2c1NC(=O)N=S(N)(=O)c1cnc(C(C)(C)O)s1` (stereo not drawn) [Example 290, N′-((6-ethyl-1H-indazol-7-yl)carbamoyl)-2-(2-hydroxypropan-2-yl)thiazole-5-sulfonimidamide], the 50% inhibitory concentration (IC50) was in the range of 1 to 5 µM. For the molecule `CC(C)c1cc(C#N)cc(C(C)C)c1NC(=O)N=S(N)(=O)c1ccc(S(C)(=O)=O)cc1` (stereo not drawn) [Example 73, N′-((4-cyano-2,6-diisopropylphenyl)carbaoyl)-4-(methylsulfonyl)benzenesulfonim idamide], the IC50 lay in the range of 1 to 5 µM. Still for that read-out and setting: in the case of `CC(C)c1ccc(S(N)(=O)=NC(=O)Nc2c3c(cc4c2CCC4)CCC3)cn1` (single isomer, unassigned) [Example 402, (S) or (R)-N′-((1,2,3,5,6,7-hexahydro-s-indacen-4-yl)carbamoyl)-6-isopropylpyridine-3-sulfonimidamide] it was 1 to 5 µM; in that of `COCCN(C)Cc1ccc(S(N)(=O)=NC(=O)Nc2c3c(cc4c2CCC4)CCC3)cc1` (single isomer, unassigned) [Example 390, (R) or (S)-N′-((1,2,3,5,6,7-hexahydro-s-indacen-4-yl)carbamoyl)-4-(((2-methoxyethyl)(meth-yl)amino)methyl)benzene-sulfonimidamide], 1 to 5 µM. In the case of `CC(C)(O)c1ncc(S(N)(=O)=NC(=O)Nc2c3c(c(C#N)c4c2CCC4)CCC3)s1` (stereo not drawn) [Example 43, N′-(8-cyano-1,2,3,5,6,7-hexaliydro-s-indacen-4-ylcarbamoyl)-2-(2-hydroxypropan-2-yl)thiazole-5-sulfonimidamide], the IC50 lay within 0.04 to 0.2 µM.

Turning to `CC(C)c1cc(OC(F)F)cc(C2CC2)c1NC(=O)N=S(N)(=O)c1ccc(C(C)(C)O)cc1F` (single isomer, unassigned) [Example 166, (S)- or (R)-N′-((2-cyclopropyl-4-(difluoromethoxy)-6-isopropylphoxyproyl)-2-fluoro-4-(2-hydroxypropan-2-yl)benzenesulfonimidamide], the IC50 was 0.2 to 1 µM. As to `CC(C)(O)c1csc(S(N)(=O)=NC(=O)Nc2c3c(cc4c2CC4)CCC3)n1` (stereo not drawn) [Example 262, 4-(2-Hydroxypropan-2-yl)-N′-((2,4,5,6-tetrahydro-1H-cyclobuta[f]inden-3-yl)carbamoyl)thiazole-2-sulfonimidamide], the IC50 was in the range of 0.008 to 0.04 µM. On to `CC(C)(O)c1cc(S(N)(=O)=NC(=O)Nc2c3c(cc4c2CCC4)CCC3)nn1-c1ccccc1` (stereo not drawn) [Example 259, N′-((1,2,3,5,6,7-hexahydro-s-indacen-4-yl)carbamoyl)-5-(2-hydroxypropan-2-yl)-1-phenyl-1H-pyrazole-3-sulfonimidamide], for which the concentration for half-maximal inhibition (IC50) lay in the range of 0.2 to 1 µM.

The same assay, now with this note: Homo sapiens, THP-1, hTHP-1 assay containing 2% fetal bovine serum; average; given as bound; read-out: hTHP-1 IC50 (Average IC50 of compounds in hTHP-1 assay).
For `CC(C)c1cc(F)cc(C(C)C)c1NC(=O)N=S(N)(=O)c1ccccc1-c1ccccc1` (stereo not drawn) [Example 212, N′-((4-fluoro-2,6-diisopropylphenyl)carbamoyl)-[1,1′-biphenyl]-2-sulfonimidamide], the IC50 was over 30 µM. `CC(C)Cc1ccc(S(N)(=O)=NC(=O)Nc2c3c(cc4c2CCC4)CCC3)cn1` (single isomer, unassigned) [Example 415, (R) or (S)-N′-((1,2,3,5,6,7-hexahydro-s-indacen-4-yl)carbamoyl)-6-isobutylpyridine-3-sulfonimidamide]: the IC50 is over 30 µM. As to `Cn1ncc2cc(S(N)(=O)=NC(=O)Nc3c4c(cc5c3CCC5)CCC4)ccc21` (single isomer, unassigned) [Example 398, (S) or (R)-N′-((1,2,3,5,6,7-hexahydro-s-indacen-4-yl)carbamoyl)-1-methyl-1H-indazole-5-sulfonimidamide], the IC50 is over 30 µM. In the case of `CC(C)c1cc(OC(F)F)cc(C2CC2)c1NC(=O)N=S(N)(=O)c1ccc(CN(C)C)cc1` (single isomer, unassigned) [Example 134, (S)- or (R)-N′-(2-cyclopropyl-4-(difluoromethoxy)-6-isopropylphenylcarbamoyl)-4-((dimethylamino)methyl)benzenesulfonimidamide], the IC50 is over 30 µM. For the molecule `CC(=O)N(C)Cc1ccc(S(N)(=O)=NC(=O)Nc2c3c(cc4c2CCC4)CCC3)cc1` (single isomer, unassigned) [Example 365, (S) or (R)-N-(4-(N′-((1,2,3,5,6,7-hexahydro-s-indacen-4-yl)carbamoyl)sulfamid-imidoyl)benzyl)-N-methylacetamide], the IC50 is over 30 µM.

In the case of `CC(C)c1cc(F)cc(C(C)C)c1NC(=O)N=S(N)(=O)c1ccc(C(C)(C)O)cc1` (single isomer, unassigned) [Example 84, (R)- or (S)-N′-(4-fluoro-2,6-diisopropylphenylcarbamoyl)-4-(2-hydroxypropan-2-yl)benzenesulfonimidamide], the 50% inhibitory concentration (IC50) was over 30 µM.

Staying with this assay, now noted: hTHP-1 assay containing 2% fetal bovine serum; average; class symbols; read-out: hTHP-1 IC50 (Average IC50 of compounds in hTHP-1 assay).
With `CC(C)(O)c1ncc(S(N)(=O)=NC(=O)Nc2c3c(cc4c2CCC4O)CCC3)s1` (single isomer, unassigned) [Example 339, (S, S) or (S, R)-N′-((l-hydroxy-1,2,3,5,6,7-hexahydro-s-indacen-4-yl)carbamoyl)-2-(2-hydroxypropan-2-yl)thiazole-5-sulfonimidamide], the half-maximal inhibitory concentration (IC50) is 1 to 5 µM. Take `CC(C)(O)c1ncc([S@@](N)(=O)=NC(=O)Nc2c3c(cc4c2CC4)CCC3)s1` (single isomer, unassigned) [Example 225]: the IC50 is 1 to 5 µM. Regarding `CC(C)(O)c1ncc(S(N)(=O)=NC(=O)Nc2c3c(cc4c2C(O)CC4)CCC3)s1` (single isomer, unassigned) [Example 392, (R, S) or (R, R) or (S, R) or (S, S)-N′-((3-hydroxy- *1,2,3,5,6,7-hexahydro-s-indacen-4-yl)carbamoyl)-2-(2-hydroxypropan-2-yl)thiazole-5-sulfonimidamide], the IC50 was 0.2 to 1 µM.
